These results are taken from article PMC6125646, “Proceeding From in vivo Functions of Pheromone Receptors: Peripheral-Coding Perception of Pheromones From Three Closely Related Species, Helicoverpa armigera, H. assulta, and Heliothis virescens” (Frontiers in Physiology, 2018).

Holding throughout (experiment): single sensillum recording, transgenic fly at1 neurons
One assay deals with T1, HvirOR6.
T1 construct: gene OR6; ORF in pVALIUM20, UAS-OR transgene expressed in Drosophila at1 neurons (Or67dGAL4 knock-in), host endogenous Orco; with Odorant receptor coreceptor (Drosophila melanogaster, endogenous in host neuron)
On the set-up: species or system Heliothis virescens. The settings on record: agonist; mass loaded on filter paper in stimulus cartridge (10 μL in paraffin oil), 300 ms pulse; not a molar concentration.

The target in assay [1] is T2, HarmOR16 (Helicoverpa armigera, UniProt A0A7D5JJ30).
T2 construct: ORF in pVALIUM20, UAS-OR transgene expressed in Drosophila at1 neurons (Or67dGAL4 knock-in), host endogenous Orco; with Odorant receptor coreceptor (Drosophila melanogaster, endogenous in host neuron)
T2 sequence (A0A7D5JJ30 1-422): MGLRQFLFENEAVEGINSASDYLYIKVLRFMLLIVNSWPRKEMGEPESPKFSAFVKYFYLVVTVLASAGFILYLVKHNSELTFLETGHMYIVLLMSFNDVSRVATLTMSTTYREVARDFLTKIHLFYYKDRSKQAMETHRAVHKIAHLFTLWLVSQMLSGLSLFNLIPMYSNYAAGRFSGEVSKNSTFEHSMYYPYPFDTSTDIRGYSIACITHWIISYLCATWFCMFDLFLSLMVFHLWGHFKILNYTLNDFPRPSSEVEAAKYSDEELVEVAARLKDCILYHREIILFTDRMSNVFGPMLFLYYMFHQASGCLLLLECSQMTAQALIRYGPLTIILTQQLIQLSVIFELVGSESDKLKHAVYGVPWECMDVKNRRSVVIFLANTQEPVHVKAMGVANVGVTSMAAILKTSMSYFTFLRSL
T2 sequence (Q9VNB5 1-486 partner): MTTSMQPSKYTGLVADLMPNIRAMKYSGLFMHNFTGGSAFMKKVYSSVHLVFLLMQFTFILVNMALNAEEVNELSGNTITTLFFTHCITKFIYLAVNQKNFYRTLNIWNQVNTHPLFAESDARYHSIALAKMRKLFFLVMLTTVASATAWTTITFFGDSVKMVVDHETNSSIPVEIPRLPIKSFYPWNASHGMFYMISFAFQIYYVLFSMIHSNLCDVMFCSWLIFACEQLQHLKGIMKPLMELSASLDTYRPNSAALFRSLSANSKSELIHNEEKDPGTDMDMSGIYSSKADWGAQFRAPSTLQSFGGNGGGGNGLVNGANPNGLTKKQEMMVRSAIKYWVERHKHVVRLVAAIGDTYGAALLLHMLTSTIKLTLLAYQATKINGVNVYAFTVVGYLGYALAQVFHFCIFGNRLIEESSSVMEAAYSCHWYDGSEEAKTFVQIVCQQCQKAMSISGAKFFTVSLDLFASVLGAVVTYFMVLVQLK
The settings on record: agonist; mass loaded on filter paper in stimulus cartridge (10 μL in paraffin oil), 300 ms pulse; not a molar concentration.

In the next assay the target is T3, HarmOR6 (Helicoverpa armigera, UniProt R4JSE3).
T3 construct: gene OR6; ORF in pVALIUM20, UAS-OR transgene expressed in Drosophila at1 neurons (Or67dGAL4 knock-in), host endogenous Orco; with Odorant receptor coreceptor (Drosophila melanogaster, endogenous in host neuron)
T3 sequence (R4JSE3 1-425): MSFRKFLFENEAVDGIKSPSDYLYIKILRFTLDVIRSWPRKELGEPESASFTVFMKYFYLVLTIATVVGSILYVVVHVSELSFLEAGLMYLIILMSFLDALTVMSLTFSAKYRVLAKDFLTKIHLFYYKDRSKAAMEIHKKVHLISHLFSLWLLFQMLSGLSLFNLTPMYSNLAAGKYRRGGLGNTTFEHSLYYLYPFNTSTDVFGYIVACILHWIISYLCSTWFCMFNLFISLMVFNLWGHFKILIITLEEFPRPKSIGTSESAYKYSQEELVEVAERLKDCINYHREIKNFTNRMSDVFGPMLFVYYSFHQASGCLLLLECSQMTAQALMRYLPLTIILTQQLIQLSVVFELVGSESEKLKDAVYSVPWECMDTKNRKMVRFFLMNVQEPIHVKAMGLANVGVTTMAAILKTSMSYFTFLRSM
T3 sequence (Q9VNB5 1-486 partner): T2 sequence (Q9VNB5 1-486 partner)
The settings on record: agonist; mass loaded on filter paper in stimulus cartridge (10 μL in paraffin oil), 300 ms pulse; not a molar concentration.

A further assay addresses T4, HassOR6 (Helicoverpa assulta, UniProt R4JLZ7).
T4 construct: gene OR6; ORF in pVALIUM20, UAS-OR transgene expressed in Drosophila at1 neurons (Or67dGAL4 knock-in), host endogenous Orco; with Odorant receptor coreceptor (Drosophila melanogaster, endogenous in host neuron)
T4 sequence (R4JLZ7 1-425): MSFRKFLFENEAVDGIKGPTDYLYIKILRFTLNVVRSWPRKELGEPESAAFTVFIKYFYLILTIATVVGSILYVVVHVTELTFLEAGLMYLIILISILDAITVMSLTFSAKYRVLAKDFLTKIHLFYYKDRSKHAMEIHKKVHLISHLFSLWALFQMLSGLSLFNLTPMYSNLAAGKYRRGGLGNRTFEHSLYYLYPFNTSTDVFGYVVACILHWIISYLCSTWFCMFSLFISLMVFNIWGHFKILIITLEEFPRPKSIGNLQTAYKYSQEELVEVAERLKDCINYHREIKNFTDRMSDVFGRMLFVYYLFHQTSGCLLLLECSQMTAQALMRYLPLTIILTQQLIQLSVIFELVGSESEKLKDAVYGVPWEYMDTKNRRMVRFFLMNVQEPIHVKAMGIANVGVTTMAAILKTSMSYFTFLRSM
T4 sequence (Q9VNB5 1-486 partner): T2 sequence (Q9VNB5 1-486 partner)
The settings on record: agonist; mass loaded on filter paper in stimulus cartridge (10 μL in paraffin oil), 300 ms pulse; not a molar concentration.

In the next assay the target is T5, HassOR13 (Helicoverpa assulta, UniProt A0A0B4ZYC6).
T5 construct: gene OR13; ORF in pVALIUM20, UAS-OR transgene expressed in Drosophila at1 neurons (Or67dGAL4 knock-in), host endogenous Orco; with Odorant receptor coreceptor (Drosophila melanogaster, endogenous in host neuron)
T5 sequence (A0A0B4ZYC6 1-425): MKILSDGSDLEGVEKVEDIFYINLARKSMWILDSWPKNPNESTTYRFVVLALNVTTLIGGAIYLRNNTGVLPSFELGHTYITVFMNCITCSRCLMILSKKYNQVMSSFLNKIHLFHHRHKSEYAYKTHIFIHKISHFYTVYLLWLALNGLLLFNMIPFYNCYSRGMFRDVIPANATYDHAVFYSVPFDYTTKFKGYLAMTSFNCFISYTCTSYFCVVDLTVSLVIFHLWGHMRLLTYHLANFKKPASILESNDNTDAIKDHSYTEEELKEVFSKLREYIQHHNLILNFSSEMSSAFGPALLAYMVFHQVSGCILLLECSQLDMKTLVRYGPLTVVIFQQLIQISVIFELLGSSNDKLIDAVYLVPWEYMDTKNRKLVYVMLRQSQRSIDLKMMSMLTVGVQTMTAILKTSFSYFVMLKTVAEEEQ
T5 sequence (Q9VNB5 1-486 partner): T2 sequence (Q9VNB5 1-486 partner)
The conditions noted are these: agonist; mass loaded on filter paper in stimulus cartridge (10 μL in paraffin oil), 300 ms pulse; not a molar concentration.

A further assay deals with T6, HvirOR13.
T6 construct: gene OR13; ORF in pVALIUM20, UAS-OR transgene expressed in Drosophila at1 neurons (Or67dGAL4 knock-in), host endogenous Orco; with Odorant receptor coreceptor (Drosophila melanogaster, endogenous in host neuron)
Also on record: species or system Heliothis virescens. The settings on record: agonist; mass loaded on filter paper in stimulus cartridge (10 μL in paraffin oil), 300 ms pulse; not a molar concentration.

Another assay deals with T7, HarmOR13 (Helicoverpa armigera, UniProt A0A075TD52).
T7 construct: gene OR13; ORF in pVALIUM20, UAS-OR transgene expressed in Drosophila at1 neurons (Or67dGAL4 knock-in), host endogenous Orco; with Odorant receptor coreceptor (Drosophila melanogaster, endogenous in host neuron)
T7 sequence (A0A075TD52 1-425): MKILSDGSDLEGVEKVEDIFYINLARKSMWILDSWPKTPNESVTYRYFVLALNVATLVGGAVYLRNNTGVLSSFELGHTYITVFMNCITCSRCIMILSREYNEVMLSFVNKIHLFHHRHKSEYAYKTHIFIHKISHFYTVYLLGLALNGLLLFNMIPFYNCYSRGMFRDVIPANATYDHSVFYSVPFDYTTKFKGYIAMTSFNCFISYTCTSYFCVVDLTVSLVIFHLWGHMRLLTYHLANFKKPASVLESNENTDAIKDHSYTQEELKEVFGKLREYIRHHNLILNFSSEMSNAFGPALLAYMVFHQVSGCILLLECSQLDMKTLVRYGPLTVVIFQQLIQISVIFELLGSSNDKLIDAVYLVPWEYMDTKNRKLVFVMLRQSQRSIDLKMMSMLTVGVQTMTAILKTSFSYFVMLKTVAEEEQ
T7 sequence (Q9VNB5 1-486 partner): T2 sequence (Q9VNB5 1-486 partner)
The settings on record: agonist; mass loaded on filter paper in stimulus cartridge (10 μL in paraffin oil), 300 ms pulse; not a molar concentration.

A further assay concerns T8, HvirOR16.
T8 construct: gene OR16; ORF in pVALIUM20, UAS-OR transgene expressed in Drosophila at1 neurons (Or67dGAL4 knock-in), host endogenous Orco; with Odorant receptor coreceptor (Drosophila melanogaster, endogenous in host neuron)
Also on record: species or system Heliothis virescens. The settings on record: agonist; mass loaded on filter paper in stimulus cartridge (10 μL in paraffin oil), 300 ms pulse; not a molar concentration.

In assay [2] the target is T2, HarmOR16. It is filed as cell-based. The settings on record: agonist; odorant on filter paper in stimulus cartridge, 300 ms pulse.

With `CCCC/C=C\CCCCCCCC=O` [Z9-14:Ald, (Z)-9-tetradecenal], the EC50 was 2.75e-05 g in the assay on HvirOR6 and 0.00126 g on HarmOR16 [1].

`CCCC/C=C\CCCCCCCCO` [Z9-14:OH]: the results for the EC50 on HarmOR6, in the assay on HvirOR6 and at HassOR6 were 3.85e-05 g, 0.000126 g and 9.66e-05 g, respectively.

Take `CCCCCC/C=C\CCCCCCCCO` [Z9-16:OH, (Z)-9-hexadecenol]: the EC50 at HarmOR6 was 5.84e-05 g; at HassOR6 it was 5.99e-05 g.

On to `CCCC/C=C\CCCCCCCCCC=O` [Z11-16:Ald, (Z)-11-hexadecenal], for which the EC50 at HassOR13 was 0.000242 g; with HvirOR13 it was 0.000216 g; on HarmOR13 it was 0.000213 g.

In turn, `CCCC/C=C\CCCCCCCCCCOC(C)=O` [Z11-16:OAc, (Z)-11-hexadecenyl acetate] registered an EC50 in the assay on HvirOR16 of 8.88e-05 g. For the same molecule, the “single sensillum recording, transgenic fly at1 neurons” value at HarmOR16 [2] was “responded to the sex pheromone components Z9-14:Ald, Z11-16:OH, and Z11-16:OAc”.

As for `CCCC/C=C\CCCCCCCCCCO` [Z11-16:OH, (Z)-11-hexadecenol], the EC50 in the assay on HvirOR16 turned out to be 3.89e-05 g; at HarmOR16 [1], 7.94e-05 g.
